# Results reported in US7718393B2, “Method for determining the efficacy of an anthracycline anticancer agent” (Sysmex Corporation, priority 2006, dated 2010).
# Experiments:
# Format in all cases: cell-based, human
# T47-D = test: Cell growth test with or without doxorubicin, T47-D; conditions: 1 μM doxorubicin, FIG. 4
# Description: (§1) Human breast cancer cells MCF-7, T47-D, SK-B-3, SK-Br-3, MDA-MB-231 and MDA-MB-468 were purchased from American Type Culture Collection (ATCC). 38 cancer cell samples (Nos. 1 to 38) were excised from 38 breast cancer patients with invasive breast cancer classified in stages I to IIIb according to the breast cancer stage classification. The 38 breast cancer patients are those who after removal of cancer tissue, received chemotherapy consisting essentially of administration of anthracycline anticancer agents. Each human breast cancer cell or cancer tissue was proliferated in Eagle's modified minimum essential medium (GIBCO) (hereinafter referred to merely as medium) containing 10% FCS (Commonwealth Laboratories), 1% (v/v) nonessential amino acid (GIBCO), 2 mM L-glutamine (Sigma Chemical), 100 μg/ml streptomycin (GIBCO), 100 U/ml penicillin (GIBCO) and 0.28 μg/ml fungizone (Squib Pharmaceuticals) in a humidified atmosphere of 5% CO2/95% air at 37° C. 3.0×10^3 human breast cancer cells or cancer tissue were inoculated onto a medium in a 96-well plate and cultured for 1 day in a humidified atmosphere of 5% CO2/95% air at 37° C. […] Cell proliferation after 0, 24, 48 and 72 hours was measured by using a cell proliferation assay kit (Nippon Chemi-Con Corporation) or Cell Titer-Glo Luminescent Cell Viability assay (Promega) in accordance with its manufacturer's instructions.
# MCF-7 = test: Cell growth test with or without doxorubicin, MCF-7; conditions: MCF-7, 1 μM doxorubicin, FIG. 3
# Description: (§2) Human breast cancer cells MCF-7, T47-D, SK-B-3, SK-Br-3, MDA-MB-231 and MDA-MB-468 were purchased from American Type Culture Collection (ATCC). 38 cancer cell samples (Nos. 1 to 38) were excised from 38 breast cancer patients with invasive breast cancer classified in stages I to IIIb according to the breast cancer stage classification. The 38 breast cancer patients are those who after removal of cancer tissue, received chemotherapy consisting essentially of administration of anthracycline anticancer agents. Each human breast cancer cell or cancer tissue was proliferated in Eagle's modified minimum essential medium (GIBCO) (hereinafter referred to merely as medium) containing 10% FCS (Commonwealth Laboratories), 1% (v/v) nonessential amino acid (GIBCO), 2 mM L-glutamine (Sigma Chemical), 100 μg/ml streptomycin (GIBCO), 100 U/ml penicillin (GIBCO) and 0.28 μg/ml fungizone (Squib Pharmaceuticals) in a humidified atmosphere of 5% CO2/95% air at 37° C. 3.0×10^3 human breast cancer cells or cancer tissue were inoculated onto a medium in a 96-well plate and cultured for 1 day in a humidified atmosphere of 5% CO2/95% air at 37° C. Thereafter, the medium was exchanged with a medium with or without 1 μM doxorubicin. Cell proliferation after 0, 24, 48 and 72 hours was measured by using a cell proliferation assay kit (Nippon Chemi-Con Corporation) or Cell Titer-Glo Luminescent Cell Viability assay (Promega) in accordance with its manufacturer's instructions.
# SK-Br-3 = test: Cell growth test with or without doxorubicin, SK-Br-3; conditions: SK-Br-3, 1 μM doxorubicin, FIGS. 5 and 10
# Description: as §1
# MDA-MB-231 = test: Cell growth test with or without doxorubicin, MDA-MB-231; conditions: MDA-MB-231, 1 μM doxorubicin, FIGS. 6 and 11
# Description: as §2
# MDA-MB-468 = test: Cell growth test with or without doxorubicin, MDA-MB-468; conditions: MDA-MB-468, 1 μM doxorubicin, FIGS. 7 and 9
# Description: as §1
# MDA-MB-453 = test: Cell growth test with or without doxorubicin, MDA-MB-453; conditions: MDA-MB-453, 1 μM doxorubicin, FIG. 8
smiles,measurement,setting,value
COc1cccc2c1C(=O)c1c(O)c3c(c(O)c1C2=O)C[C@@](O)(C(=O)CO)C[C@@H]3O[C@H]1C[C@H](N)[C@H](O)[C@H](C)O1 [doxorubicin],Living cells from 0 hour after administration,T47-D; 0 to 72 hours,gradually decreased with time
same,Induction of apotosis,T47-D,"induced, but the effect thereon can be seen to be lower"
same,Cell proliferation as compared with the control,MCF-7; 0 to 72 hours,suppressed
same,Living cells from 0 hour after administration,MCF-7; 0 to 72 hours,hardly changed or are increased
same,Induction of apotosis,MCF-7,very low
same,Living cells from 0 hour after administration,SK-Br-3; 0 to 72 hours,gradually decreased with time
same,Induction of apotosis,SK-Br-3; 72 hours,so high that the living cells hardly remain after 72 hours
same,Cell proliferation as compared with the control,MDA-MB-231; 0 to 72 hours,suppressed
same,Living cells from 0 hour after administration,MDA-MB-231; 0 to 72 hours,hardly changed or are increased
same,Induction of apotosis,MDA-MB-231,very low
same,Living cells from 0 hour after administration,MDA-MB-468; 0 to 72 hours,gradually decreased with time
same,Induction of apotosis,MDA-MB-468,"induced, but the effect thereon can be seen to be lower"
same,Living cells from 0 hour after administration,MDA-MB-453; 0 to 72 hours,gradually decreased with time
same,Induction of apotosis,MDA-MB-453; 72 hours,so high that the living cells hardly remain after 72 hours
